Measurements: patent publication US11547697B2, “Heterocyclic compounds and uses thereof” (MILLENNIUM PHARMACEUTICALS, INC., priority 2009, dated 2023)
Read-outs that look alike come from different tables or passages of the source.

Tests used:
Assay type in all cases: biochemical
p110α/p85α = p110α/p85α (Homo sapiens (Human), UniProt P42336); assay: PI 3-Kinase (human) HTRF assay, p110α/p85α
Procedure: (§1) An exemplary system is PI 3-Kinase (human) HTRF™ Assay from Upstate. […] Briefly, the assay is a time resolved FRET assay that indirectly measures PIP3 product formed by the activity of a PI3-K. The kinase reaction is performed in a microtitre plate (e.g., a 384 well microtitre plate). The total reaction volume is approximately 20 ul per well. In the first step, each well receives 2 ul of test compound in 20% dimethylsulphoxide resulting in a 2% DMSO final concentration. Next, approximately 14.5 ul of a kinase/PIP2 mixture (diluted in 1× reaction buffer) is added per well for a final concentration of 0.25-0.3 ug/ml kinase and 10 μM PIP2. The plate is sealed and incubated for 15 minutes at room temperature. To start the reaction, 3.5 ul of ATP (diluted in 1× reaction buffer) is added per well for a final concentration of 10 μM ATP. The plate is sealed and incubated for 1 hour at room temperature. The reaction is stopped by adding 5 ul of Stop Solution per well and then 5 ul of Detection Mix is added per well. The plate is sealed, incubated for 1 hour at room temperature, and then read on an appropriate plate reader. Data is analyzed and IC50s are generated using GraphPad Prism 5. […] For PI3K α, β, δ, and γ, the nM concentration of inhibitor to reach IC50 is provided.

p110γ = p110γ (Homo sapiens (Human), UniProt P48736); assay: PI 3-Kinase (human) HTRF assay, p110γ
p110β/p85α = p110β/p85α (Homo sapiens (Human), UniProt P42338); assay: PI 3-Kinase (human) HTRF assay, p110β/p85α
p110δ/p85α = p110δ/p85α (Homo sapiens (Human), UniProt O00329); assay: PI 3-Kinase (human) HTRF assay, p110δ/p85α
Procedure: as §1

[1] = in vitro, read-out: PI3K α IC50
[2] = in vitro, read-out: PI3K γ IC50
[3] = in vitro, read-out: PI3K β IC50
[4] = in vitro, read-out: PI3K δ IC50

Sequence of p110α/p85α (P42336 whole entry): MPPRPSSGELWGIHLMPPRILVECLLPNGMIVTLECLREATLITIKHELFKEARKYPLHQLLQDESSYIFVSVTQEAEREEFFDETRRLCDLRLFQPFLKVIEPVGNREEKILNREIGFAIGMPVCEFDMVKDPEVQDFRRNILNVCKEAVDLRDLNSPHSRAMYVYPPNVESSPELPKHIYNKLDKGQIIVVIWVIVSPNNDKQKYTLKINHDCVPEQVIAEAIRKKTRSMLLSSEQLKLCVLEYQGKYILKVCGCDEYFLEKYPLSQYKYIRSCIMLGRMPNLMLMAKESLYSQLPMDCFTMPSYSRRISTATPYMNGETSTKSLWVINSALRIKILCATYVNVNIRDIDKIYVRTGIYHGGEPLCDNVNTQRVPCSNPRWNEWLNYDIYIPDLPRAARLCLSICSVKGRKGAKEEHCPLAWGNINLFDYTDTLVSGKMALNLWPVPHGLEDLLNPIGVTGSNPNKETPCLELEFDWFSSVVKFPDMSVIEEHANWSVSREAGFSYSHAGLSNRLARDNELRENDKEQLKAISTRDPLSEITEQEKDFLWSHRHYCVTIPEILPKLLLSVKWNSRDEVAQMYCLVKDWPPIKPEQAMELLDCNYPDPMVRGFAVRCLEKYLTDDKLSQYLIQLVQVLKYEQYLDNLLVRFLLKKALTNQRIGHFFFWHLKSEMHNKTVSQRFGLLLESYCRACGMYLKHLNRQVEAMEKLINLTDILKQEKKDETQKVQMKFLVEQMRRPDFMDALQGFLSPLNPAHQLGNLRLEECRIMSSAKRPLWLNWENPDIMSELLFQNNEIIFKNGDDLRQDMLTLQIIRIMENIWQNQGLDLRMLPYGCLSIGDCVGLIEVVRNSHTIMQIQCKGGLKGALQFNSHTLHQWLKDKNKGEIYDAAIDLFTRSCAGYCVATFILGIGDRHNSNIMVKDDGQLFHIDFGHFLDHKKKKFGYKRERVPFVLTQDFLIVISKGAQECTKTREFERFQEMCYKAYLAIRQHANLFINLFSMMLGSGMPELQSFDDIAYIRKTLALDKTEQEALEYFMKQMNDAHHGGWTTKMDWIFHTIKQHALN
Sequence of p110α/p85α (P27986 whole entry partner): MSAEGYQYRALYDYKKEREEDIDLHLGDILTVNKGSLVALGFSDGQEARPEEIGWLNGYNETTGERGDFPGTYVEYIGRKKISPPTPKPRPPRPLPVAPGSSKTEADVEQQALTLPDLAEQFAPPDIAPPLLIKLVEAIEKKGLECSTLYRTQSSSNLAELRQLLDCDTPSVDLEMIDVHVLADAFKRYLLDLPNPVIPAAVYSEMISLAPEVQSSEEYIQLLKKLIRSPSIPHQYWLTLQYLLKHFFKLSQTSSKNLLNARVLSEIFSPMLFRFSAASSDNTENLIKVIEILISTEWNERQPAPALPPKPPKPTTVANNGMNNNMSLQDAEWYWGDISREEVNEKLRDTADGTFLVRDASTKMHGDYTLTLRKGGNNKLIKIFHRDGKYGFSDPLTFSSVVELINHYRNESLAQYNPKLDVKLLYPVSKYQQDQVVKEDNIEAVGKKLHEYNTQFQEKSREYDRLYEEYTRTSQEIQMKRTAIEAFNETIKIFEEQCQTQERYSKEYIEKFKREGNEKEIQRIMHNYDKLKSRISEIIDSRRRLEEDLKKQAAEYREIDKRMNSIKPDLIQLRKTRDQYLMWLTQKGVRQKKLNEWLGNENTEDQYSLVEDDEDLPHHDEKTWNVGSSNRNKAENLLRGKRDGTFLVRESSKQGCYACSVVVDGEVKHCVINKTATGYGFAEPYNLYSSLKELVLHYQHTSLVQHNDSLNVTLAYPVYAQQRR
Sequence of p110γ (P48736 whole entry): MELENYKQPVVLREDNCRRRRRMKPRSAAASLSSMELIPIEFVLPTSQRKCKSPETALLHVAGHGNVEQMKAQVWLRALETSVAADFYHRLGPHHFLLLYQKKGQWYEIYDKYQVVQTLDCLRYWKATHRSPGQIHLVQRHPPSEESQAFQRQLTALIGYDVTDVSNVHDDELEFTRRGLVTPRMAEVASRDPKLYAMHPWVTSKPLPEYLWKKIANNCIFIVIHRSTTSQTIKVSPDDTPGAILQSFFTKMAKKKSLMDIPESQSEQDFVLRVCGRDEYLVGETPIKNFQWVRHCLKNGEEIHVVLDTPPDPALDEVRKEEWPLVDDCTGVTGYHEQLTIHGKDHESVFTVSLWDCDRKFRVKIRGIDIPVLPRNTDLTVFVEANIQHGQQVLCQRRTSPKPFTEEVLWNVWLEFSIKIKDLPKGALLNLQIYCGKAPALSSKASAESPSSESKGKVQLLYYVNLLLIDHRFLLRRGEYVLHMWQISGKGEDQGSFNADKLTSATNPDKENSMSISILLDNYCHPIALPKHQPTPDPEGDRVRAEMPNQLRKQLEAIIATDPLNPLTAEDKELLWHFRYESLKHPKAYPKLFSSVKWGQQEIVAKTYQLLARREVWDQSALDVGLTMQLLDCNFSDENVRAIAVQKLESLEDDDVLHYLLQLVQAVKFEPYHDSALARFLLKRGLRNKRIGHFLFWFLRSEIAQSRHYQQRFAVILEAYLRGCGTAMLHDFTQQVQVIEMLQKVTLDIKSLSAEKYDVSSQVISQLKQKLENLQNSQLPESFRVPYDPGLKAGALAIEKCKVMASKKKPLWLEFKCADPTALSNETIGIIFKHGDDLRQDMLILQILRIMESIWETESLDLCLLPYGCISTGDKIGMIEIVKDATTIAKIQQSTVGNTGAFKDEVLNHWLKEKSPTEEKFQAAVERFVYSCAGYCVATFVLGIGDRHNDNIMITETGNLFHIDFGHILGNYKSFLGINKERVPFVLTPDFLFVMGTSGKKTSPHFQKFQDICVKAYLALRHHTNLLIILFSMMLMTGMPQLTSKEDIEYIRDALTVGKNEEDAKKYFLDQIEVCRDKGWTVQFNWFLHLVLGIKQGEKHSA
Sequence of p110β/p85α (P42338 whole entry): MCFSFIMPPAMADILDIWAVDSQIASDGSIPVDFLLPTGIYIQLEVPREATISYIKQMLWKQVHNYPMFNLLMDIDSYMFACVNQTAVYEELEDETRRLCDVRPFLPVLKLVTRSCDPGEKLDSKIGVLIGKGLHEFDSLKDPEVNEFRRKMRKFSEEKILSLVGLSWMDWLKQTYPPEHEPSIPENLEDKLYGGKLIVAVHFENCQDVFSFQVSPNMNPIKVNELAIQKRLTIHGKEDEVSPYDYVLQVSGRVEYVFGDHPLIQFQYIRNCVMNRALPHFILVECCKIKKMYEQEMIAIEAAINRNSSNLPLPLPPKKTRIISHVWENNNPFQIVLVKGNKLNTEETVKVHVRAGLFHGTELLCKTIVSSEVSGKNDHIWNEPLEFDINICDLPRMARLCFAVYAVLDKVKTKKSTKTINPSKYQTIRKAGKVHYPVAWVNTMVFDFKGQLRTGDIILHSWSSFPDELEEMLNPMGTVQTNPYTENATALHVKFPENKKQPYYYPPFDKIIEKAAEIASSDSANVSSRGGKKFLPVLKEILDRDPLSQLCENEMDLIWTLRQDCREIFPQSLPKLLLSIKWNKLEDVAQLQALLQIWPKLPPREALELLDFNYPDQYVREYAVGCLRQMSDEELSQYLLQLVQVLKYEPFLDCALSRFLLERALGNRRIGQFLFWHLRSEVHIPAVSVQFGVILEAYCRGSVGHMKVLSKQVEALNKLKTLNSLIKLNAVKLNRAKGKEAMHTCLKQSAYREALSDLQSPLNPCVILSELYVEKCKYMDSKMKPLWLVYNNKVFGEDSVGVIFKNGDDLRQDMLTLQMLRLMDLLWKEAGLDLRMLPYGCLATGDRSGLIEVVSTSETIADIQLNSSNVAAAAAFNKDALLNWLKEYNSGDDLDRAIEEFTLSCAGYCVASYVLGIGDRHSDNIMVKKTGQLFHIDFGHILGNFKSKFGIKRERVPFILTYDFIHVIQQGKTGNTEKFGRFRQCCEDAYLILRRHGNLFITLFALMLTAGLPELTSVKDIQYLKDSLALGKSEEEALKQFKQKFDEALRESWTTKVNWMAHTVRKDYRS
Sequence of p110β/p85α (P27986 whole entry partner): as the sequence (P27986 whole entry partner) above
Sequence of p110δ/p85α (O00329 whole entry): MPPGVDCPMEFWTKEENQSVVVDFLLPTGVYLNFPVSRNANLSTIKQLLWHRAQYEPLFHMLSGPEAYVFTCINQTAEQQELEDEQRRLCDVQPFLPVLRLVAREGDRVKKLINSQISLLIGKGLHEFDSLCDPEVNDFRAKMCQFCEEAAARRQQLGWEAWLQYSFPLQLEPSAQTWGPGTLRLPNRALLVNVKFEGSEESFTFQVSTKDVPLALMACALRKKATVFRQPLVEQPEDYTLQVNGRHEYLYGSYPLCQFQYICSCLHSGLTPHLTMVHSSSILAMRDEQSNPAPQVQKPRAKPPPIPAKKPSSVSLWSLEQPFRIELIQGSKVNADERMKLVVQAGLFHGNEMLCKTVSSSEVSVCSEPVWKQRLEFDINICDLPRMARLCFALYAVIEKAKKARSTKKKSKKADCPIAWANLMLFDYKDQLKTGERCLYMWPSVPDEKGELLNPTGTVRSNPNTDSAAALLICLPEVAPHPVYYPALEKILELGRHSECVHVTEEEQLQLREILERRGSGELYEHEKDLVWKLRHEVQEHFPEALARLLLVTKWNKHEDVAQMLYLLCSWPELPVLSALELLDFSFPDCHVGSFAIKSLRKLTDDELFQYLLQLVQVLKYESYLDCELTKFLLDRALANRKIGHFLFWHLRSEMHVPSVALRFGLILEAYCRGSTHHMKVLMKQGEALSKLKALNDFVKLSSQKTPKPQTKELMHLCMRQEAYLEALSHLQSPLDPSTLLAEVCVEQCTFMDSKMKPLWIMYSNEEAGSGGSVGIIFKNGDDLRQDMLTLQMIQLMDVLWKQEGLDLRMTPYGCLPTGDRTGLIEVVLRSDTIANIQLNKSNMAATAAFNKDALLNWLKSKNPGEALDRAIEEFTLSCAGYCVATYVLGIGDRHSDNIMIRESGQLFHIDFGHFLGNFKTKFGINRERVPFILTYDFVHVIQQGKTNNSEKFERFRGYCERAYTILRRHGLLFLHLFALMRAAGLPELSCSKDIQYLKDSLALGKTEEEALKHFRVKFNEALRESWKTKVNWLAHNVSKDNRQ
Sequence of p110δ/p85α (P27986 whole entry partner): as the sequence (P27986 whole entry partner) above

| Compound | IC50 (p110α/p85α; [1]) [nM] | IC50 (p110γ; [2]) [nM] | IC50 (p110β/p85α; [3]) [nM] | IC50 (p110δ/p85α; [4]) [nM] | further results |
| --- | --- | --- | --- | --- | --- |
| Nc1nc2cc(-c3cn4c(-c5ccncc5)cnc4cn3)ccc2o1 [compound 68] | – | – | – | – | IC50 (p110α/p85α; read-out: PI3K α IC50): < 100 nM; IC50 (p110γ; read-out: PI3K γ IC50): < 1000 nM; IC50 (p110β/p85α; read-out: PI3K β IC50): < 10000 nM; IC50 (p110δ/p85α; read-out: PI3K δ IC50): < 10000 nM |
| Nc1nc2cc(-c3ccc4nccc(-c5ccncc5)c4c3)ccc2s1 [compound 70] | – | – | – | – | IC50 (p110α/p85α; read-out: PI3K α IC50): < 100 nM; IC50 (p110γ; read-out: PI3K γ IC50): < 100 nM; IC50 (p110β/p85α; read-out: PI3K β IC50): < 100 nM; IC50 (p110δ/p85α; read-out: PI3K δ IC50): < 100 nM |
| CCN(CC)CCCNC(=O)c1cnc2ccc(-c3ccc4oc(N)nc4c3)cn12 [compound 302] | < 1000 | < 10000 | < 10000 | < 100 | – |
| COc1ncc(-c2ccc3ncc(C(=O)N4CCOCC4)n3c2)cc1NS(C)(=O)=O [compound 416] | – | – | – | – | IC50 (p110α/p85α; read-out: PI3K α In Vitro IC50): < 100 nM; IC50 (p110γ; read-out: PI3K γ In Vitro IC50): < 1000 nM; IC50 (p110β/p85α; read-out: PI3K β In Vitro IC50): < 10000 nM; IC50 (p110δ/p85α; read-out: PI3K δ In Vitro IC50): < 10000 nM |
| CCN(CC)CCCNc1cnc2ccc(-c3ccc4oc(N)nc4c3)cc2n1 [compound 220] | < 100 | < 1000 | < 1000 | < 100 | – |
| Nc1nc2cc(-c3ccc4nc(N)sc4c3)cc(F)c2o1 [compound 436] | – | – | – | – | IC50 (p110α/p85α; read-out: PI3K α In Vitro IC50): < 100 nM; IC50 (p110γ; read-out: PI3K γ In Vitro IC50): < 100 nM; IC50 (p110β/p85α; read-out: PI3K β In Vitro IC50): < 100 nM; IC50 (p110δ/p85α; read-out: PI3K δ In Vitro IC50): < 1000 nM |
| C[C@H]1CN(c2cnc3ccc(-c4ccc5oc(N)nc5c4)cc3n2)CCN1C [compound 332] | < 1000 | < 1000 | < 100 | < 10000 | – |
| Cc1cc(-c2ccc3oc(N)nc3c2)cc2c(C(=O)N3CCOCC3)cnn12 [compound 357] | < 1000 | < 1000 | < 10000 | < 10000 | – |
| O=C(c1cnc2ccc(-c3ccc(Cl)c(NS(=O)(=O)c4ccc(F)cc4F)c3)cn12)N1CCOCC1 [compound 461] | – | – | – | – | IC50 (p110α/p85α; read-out: PI3K α In Vitro IC50): < 1000 nM; IC50 (p110γ; read-out: PI3K γ In Vitro IC50): < 10000 nM; IC50 (p110β/p85α; read-out: PI3K β In Vitro IC50): < 10000 nM; IC50 (p110δ/p85α; read-out: PI3K δ In Vitro IC50): < 10000 nM |
| Nc1nc2cc(-c3ccc4ncc(-c5cccnc5)n4n3)ccc2o1 [compound 58] | – | – | – | – | IC50 (p110α/p85α; read-out: PI3K α IC50): < 100 nM; IC50 (p110γ; read-out: PI3K γ IC50): < 100 nM; IC50 (p110β/p85α; read-out: PI3K β IC50): < 100 nM; IC50 (p110δ/p85α; read-out: PI3K δ IC50): < 100 nM |
| Cn1cc(-c2cnc3ccc(-c4ccc5oc(N)nc5c4)cc3n2)cn1 [compound 94] | – | – | – | – | IC50 (p110α/p85α; read-out: PI3K α IC50): < 100 nM; IC50 (p110γ; read-out: PI3K γ IC50): < 100 nM; IC50 (p110β/p85α; read-out: PI3K β IC50): < 1000 nM; IC50 (p110δ/p85α; read-out: PI3K δ IC50): < 10000 nM |
| CC(=O)N1CCN(C2CN(c3cnc4ccc(-c5ccc6oc(N)nc6c5)cc4n3)C2)CC1 [compound 327] | < 100 | < 1000 | < 10000 | < 1000 | – |
| CC(Oc1nc(-c2ccc3ncc(C(=O)N4CCOCC4)n3c2)cnc1N)C(F)(F)F (stereo not shown) [compound 411] | – | – | – | – | IC50 (p110α/p85α; read-out: PI3K α In Vitro IC50): < 100 nM; IC50 (p110γ; read-out: PI3K γ In Vitro IC50): < 1000 nM; IC50 (p110β/p85α; read-out: PI3K β In Vitro IC50): < 10000 nM; IC50 (p110δ/p85α; read-out: PI3K δ In Vitro IC50): < 10000 nM |
| CC(C)N1CCN(C2CN(c3cnc4ccc(-c5ccc6oc(N)nc6c5)cc4n3)C2)CC1 [compound 331] | < 100 | < 10000 | < 10000 | < 10000 | – |
| CS(=O)(=O)N1CCN(c2cnc3ccc(-c4ccc5oc(N)nc5c4)cc3n2)CC1 [compound 86] | – | – | – | – | IC50 (p110α/p85α; read-out: PI3K α IC50): < 100 nM; IC50 (p110γ; read-out: PI3K γ IC50): < 100 nM; IC50 (p110β/p85α; read-out: PI3K β IC50): < 1000 nM; IC50 (p110δ/p85α; read-out: PI3K δ IC50): < 1000 nM |
| Nc1nc2cc(-c3ccc4ncc(-c5ccncc5)nc4c3)ccc2o1 [compound 71] | – | – | – | – | IC50 (p110α/p85α; read-out: PI3K α IC50): < 100 nM; IC50 (p110γ; read-out: PI3K γ IC50): < 100 nM; IC50 (p110β/p85α; read-out: PI3K β IC50): < 10000 nM; IC50 (p110δ/p85α; read-out: PI3K δ IC50): < 1000 nM |
| CCN(CC)CCNC(=O)c1cnc2ccc(-c3ccc4oc(N)nc4c3)cn12 [compound 295] | < 1000 | < 1000 | < 1000 | < 1000 | – |
| CN1CCN([C@H]2CCN(c3cnc4ccc(-c5ccc6oc(N)nc6c5)cc4n3)C2)CC1 [compound 381] | < 100 | < 10000 | < 1000 | < 10000 | – |
| CN1CCC(N(C)c2ncnc3ccc(-c4ccc5oc(N)nc5c4)cc23)CC1 [compound 155] | – | – | – | – | IC50 (p110α/p85α; read-out: PI3K α IC50): < 100 nM; IC50 (p110γ; read-out: PI3K γ IC50): < 100 nM; IC50 (p110β/p85α; read-out: PI3K β IC50): < 100 nM; IC50 (p110δ/p85α; read-out: PI3K δ IC50): < 1000 nM |
| Nc1nc2ccc(-c3ccc4nnc(-c5ccncc5)n4c3)cc2o1 [compound 230] | < 10000 | < 1000 | < 1000 | < 10000 | – |
| Cc1ccn(C2CN(c3cnc4ccc(-c5ccc6oc(N)nc6c5)cc4n3)C2)n1 [compound 320] | < 100 | < 10000 | < 10000 | < 10000 | – |
| CNC(=O)C1CN(c2cnc3ccc(-c4ccc5oc(N)nc5c4)cc3n2)C1 [compound 214] | < 100 | < 1000 | < 100 | < 10000 | – |
| Nc1nc2cc(-c3ccc4ncc(N5CCn6cccc6C5)nc4c3)ccc2o1 [compound 394] | < 100 | < 100 | < 100 | < 1000 | – |
| CC(C)N1CCC(n2cnc3ccc(-c4cnc(Cl)c(NS(=O)(=O)c5ccccc5)c4)cc3c2=O)CC1 [compound 521] | – | – | – | – | IC50 (p110α/p85α; read-out: PI3K α In Vitro IC50): < 100 nM; IC50 (p110γ; read-out: PI3K γ In Vitro IC50): < 1000 nM; IC50 (p110β/p85α; read-out: PI3K β In Vitro IC50): < 100 nM; IC50 (p110δ/p85α; read-out: PI3K δ In Vitro IC50): < 100 nM |
| Nc1nc2cc(-c3ccc4ncc(N5CC(N6CCCC6)C5)nc4c3)ccc2o1 [compound 314] | < 1000 | < 10000 | < 10000 | < 10000 | – |
